For one series, the system named is gastric acid secretion. The experiment in a line: Gastric acid secretion-inhibiting activity (pylorus ligation, Shay et al.). The series is classed as in vivo, male rats. The conditions noted are these: Rattus norvegicus, 5 h; pylorus-ligated rats; intraduodenal; five hours after ligation; dosage giving 50% decrease of the secretion vs control; read-out: Gastric acid secretion-inhibition ID 50. On the procedure: The test procedure described hereinafter was used to determine the gastric acid secretion-inhibiting activity:
The pylorus of male rats is ligated under slight ether narcosis in accordance with the procedure described by Shay et al. in Gastroenterology 5, 43 (1945). The substances to be tested, suspended in 0.5% carboxymethylcellulose, are administered intraduodenally. Control animals are treated only with the vehicle. Five hours after the ligation the animals are sacrificed, the volume and acidity of their gastric fluid are determined, and the values obtained are compared with those of control animals. The ID50 is that dosage of a test substance which brings about a 50% decrease of the secretion in comparison to the control animals.
(§1) In the following Table there are given for a series of representative compounds of formula I and for two compounds of formula II the results of the testing with respect to their mucosa-protective activity ("ethanol test") and to their gastric acid secretion-inhibiting activity. Moreover, this Table contains data concerning the acute toxicity (LD50 in the case of single oral administration to mice).

For series [1], the system named is ethanol-induced lesions of the mucous membrane of the stomach. The experiment in a line: Ethanol test (mucosa-protective activity). The series is classed as in vivo, male rats. Conditions: rats; oral, 30 minutes prior to absolute ethanol (1 ml per rat); dosage reducing by 50% the number of lesions vs control; read-out: Ethanol Test ID 50. On the procedure: The experimental procedure described hereinafter has been used to determine the mucosa-protective property:
The oral administration of absolute ethanol to male rats in a dosage of 1 ml per rat leads within 1 hour to bloody lesions of the mucous membrane of the stomach. Various dosages of the substances to be tested (suspended in 0.125% carboxymethylcellulose) or of the vehicle alone (control) are administered to the rats orally (1 ml per rat) 30 minutes prior to the treatment with ethanol. One hour after the administration of the ethanol the animals are sacrificed, their stomachs are examined for the presence of lesions, and the number and size of such lesions are mentioned. The ID50 is that dosage of a test substance which reduces by 50% the number of lesions in comparison to the control group.
as §1

A short description of series [2]: Acute toxicity (single oral administration to mice). Conditions: mouse, in vivo, read-out: Toxicity LD 50.
Description: Representative compounds of formulae I and II have been investigated with respect to their mucosa-protective and gastric acid secretion-inhibiting properties as well as to their toxicity.
as §1

Take `COc1cccc(/C=C/C(=O)/C=C/C(=O)O)c1` [A, (E,E)6-(3-Methoxyphenyl)-4-oxo-2,5-hexadienoic acid]: the ED50 in the series on gastric acid secretion was found to be 9 mg/kg; in series [1], 0.8 mg/kg. Besides, in series [2], the LD50 lay in the range of 312 to 625 mg/kg.

In the case of `COc1ccc(/C=C/C(=O)/C=C/C(=O)O)cc1` [B, (E,E)6-(4-Methoxyphenyl)-4-oxo-2,5-hexadienoic acid], in series [1], the ED50 was found to be 0.7 mg/kg. Moreover, the LD50 in series [2] was in the range of 312 to 625 mg/kg.

For the compound `COC(=O)/C=C\C(=O)/C=C/c1ccc(OC)cc1` [C, Methyl (2Z,5E)6-(4-methoxyphenyl)-4-oxo-2,5-hexadienoate], in series [1], the ED50 worked out at 1 mg/kg. Further, in series [2], the LD50 fell in the range of 625 to 1250 mg/kg.

In the case of `COc1ccc(/C=C/C(=O)C#CC(=O)O)cc1` [D, (E)6-(4-Methoxyphenyl)-4-oxo-5-hexen-2-ynoic acid], in series [1], the ED50 was 0.5 mg/kg. In addition, the LD50 in series [2] was in the range of 500 to 1000 mg/kg.

As to `O=C(O)/C=C/C(=O)/C=C/c1ccc(F)cc1` [E, (E,E)6-(4-Fluorophenyl)-4-oxo-2,5-hexadienoic acid], the ED50 in series [1] was 1.9 mg/kg. For the same compound, the LD50 in series [2] lay within 312 to 625 mg/kg.

For `COc1ccc(/C=C/C(=O)/C=C\C(=O)O)cc1` [F, (2Z,5E)6-(4-Methoxyphenyl)-4-oxo-2,5-hexadienoic acid], the ED50 in series [1] came to 0.7 mg/kg. The LD50 in series [2] was in the range of 156 to 312 mg/kg.

Regarding `COCCOCCOC(=O)/C=C/C(=O)/C=C/c1cccc(OC)c1` [G, 2(2-Methoxyethoxy)ethyl (E,E)6-(3-methoxyphenyl)-4-oxo-2,5-hexadienoate], the ED50 in series [1] stood at 2.7 mg/kg. Further, the LD50 in series [2] lay within 500 to 1000 mg/kg.

As for `COCCOCCOC(=O)C#CC(=O)/C=C/c1ccc(OC)cc1` [H, 2(2-Methoxyethoxy)ethyl (E)6-(4-methoxyphenyl)-4-oxo-5-hexen-2-ynoate], in series [1], the ED50 was found to be 2.7 mg/kg. In series [2], the LD50 lay in the range of 2500 to 5000 mg/kg.

With `COC(=O)C#CC(O)/C=C/c1ccc(OC)cc1` (stereo not drawn) [I, Methyl (E)4-hydroxy-6-(4-methoxyphenyl)-5-hexen-2-ynoate], the ED50 in series [1] worked out at 2.1 mg/kg. The LD50 in series [2] was 1000 to 2000 mg/kg.

In the case of `COCCOCCOC(=O)C#CC(O)/C=C/c1ccc(OC)cc1` (stereo not drawn) [J, 2(2-Methoxyethoxy)ethyl (E)4-hydroxy-6-(4-methoxy-phenyl)-5-hexen-2-ynoate], the ED50 in series [1] came out at 3.4 mg/kg. The LD50 in series [2] is above 4000 mg/kg.

The values above are taken from patent US4927958A, “Styryl ketones” (Hoffmann-La Roche Inc., priority 1987, dated 1990).
